Experimental data published in patent publication US8592594B2, “Tetrahydro-quinoline derivatives” (Hoffmann-La Roche Inc., priority 2010, dated 2013).

System: recombinant AMPK proteins (α1β1γ1, α2β1γ1, α1(1-335), α1(1-394) or α2(1-394))
Assay: Scintillation Proximity Assay (SPA), AMPK activation
Type: biochemical, human
Conditions: effective concentration of activator for 50% of maximal enzyme activity; 50 nM AMPK, 2 μM ATP, 2 μM biotin-SAMS, 30° C., 2 hours
Method: Recombinant human AMPK α1β1γ1, α2β1γ1 or AMPK α subunit truncations α1(1-335), α1(1-394) and α2(1-394) were constructed, expressed and purified as described previously (Pang, T., Zhang, Z. S., Gu, M., Qiu, B. Y., Yu, L. F., Cao, P. R., Shao, W., Su, M. B., Li, J. Y., Nan, F. J., and Li, J. (2008). Rat liver AMPK heterotrimer enzyme was obtained from Upstate (Billerica, Mass., U.S.A.).
Scintillation Proximity Assay
Before the Scintillation Proximity Assay (SPA) assay, 200 nM recombinant AMPK proteins (α1β1γ1, α2β1γ1, α1(1-335), α1(1-394) or α2(1-394)) were fully phosphorylated as described previously (Pang et al., 2008). SPA reactions were performed in 96-well plates at a final volume of 50 μL containing 20 mM Tris-HCl pH 7.5, 5 mM MgCl2, 1 mM DTT, 2 μM biotin-SAMS, 2 μM ATP, 0.2 μCi/well [γ-^33P]ATP, and various amount of activator. Reactions were initiated by the addition of 50 nM recombinant AMPK proteins to the reaction solutions and incubated at 30° C. for 2 hours. After that, reactions were terminated by the addition of 40 μL stop solution containing 80 μg streptavidin-coated SPA beads per well, 50 mM ED TA, 0.1% Triton X-100 in PBS, pH 7.5 and incubated for 1 hour. Finally, a 160 μL suspension solution containing 2.4 M CsCl, 50 mM EDTA, and 0.1% Triton X-100 in PBS (pH 7.5) was added to the reaction solution to suspend SPA beads completely. SPA signals were determined with a Wallac MicroBeta plate counter (PerkinElmer) 30 min later for calculation of the amount of product formed. The amount of products formed in 2 hour was plotted against activator concentrations to determine the effective concentration of the activator (EC50) required for 50% of maximal enzyme activity.

In order of falling EC50:
1. O=C(NC1CC1)c1ccc2c(c1)C1(CC1)CC(c1cc(Cl)ccc1Cl)N2 (stereo not shown) [Example 37, 2-(2,5-Dichloro-phenyl)-spiro(cyclopropane-1,4′-1′,2′,3′,4′-tetrahydroquinoline)-6-carboxylic acid cyclopropylamide]  13.9 µM
2. Cc1ccc(F)cc1C1CC2(CC2)c2cc(C(=O)NC3CCC3)ccc2N1 (stereo not shown) [Example 28, 2-(5-Fluoro-2-methyl-phenyl)-spiro(cyclopropane-1,4′-1′,2′,3′,4′-tetrahydroquinoline)-6-carboxylic acid cyclobutylamide]  11.4 µM
3. CC(C)NC(=O)c1ccc2c(c1)C1(CC1)CC(c1cc(Cl)ccc1F)N2 (stereo not shown) [Example 47, 2-(5-Chloro-2-fluoro-phenyl)-spiro(cyclopropane-1,4′-1′,2′,3′,4′-tetrahydroquinoline)-6-carboxylic acid isopropylamide]  11.4 µM
4. O=C(NC1CCC1)c1ccc2c(c1)C1(CC1)CC(c1cc(F)ccc1Br)N2 (stereo not shown) [Example 35, 2-(2-Bromo-5-fluoro-phenyl)-spiro(cyclopropane-1,4′-1′,2′,3′,4′-tetrahydroquinoline)-6-carboxylic acid cyclobutylamide]  6.88 µM
5. O=C(O)c1ccc2c(c1)C1(CC1)CC(c1cc(Cl)ccc1Cl)N2 (stereo not shown) [Example 3, 2-(2,5-Dichloro-phenyl)-spiro(cyclopropane-1,4′-1′,2′,3′,4′-tetrahydroquinoline)-6-carboxylic acid]  6.12 µM
6. O=C(NC1CCC1)c1ccc2c(c1)C1(CCCC1)CC(c1cc(Cl)ccc1Cl)N2 (stereo not shown) [Example 61, 2-(2,5-Dichloro-phenyl)-spiro(cyclopentane-1,4′-1′,2′,3′,4′-tetrahydroquinoline)-6-carboxylic acid cyclobutylamide]  5.98 µM
7. O=C(NC1CCC1)c1ccc2c(c1)C1(CC1)CC(c1cc(Cl)cc(Cl)c1)N2 (stereo not shown) [Example 43, 2-(3,5-Dichloro-phenyl)-spiro(cyclopropane-1,4′-1′,2′,3′,4′-tetrahydroquinoline)-6-carboxylic acid cyclobutylamide]  5.86 µM
8. O=C(NC1CCC1)c1ccc2c(c1)C1(CC1)CC(c1cc(Cl)ccc1Cl)N2 (stereo not shown) [Example 39, 2-(2,5-Dichloro-phenyl)-spiro(cyclopropane-1,4′-1′,2′,3′,4′-tetrahydroquinoline)-6-carboxylic acid cyclobutylamide]  4.95 µM
9. C=CC1(C)CC(c2ccc(F)c(Cl)c2)Nc2ccc(C(=O)O)nc21 (stereo not shown) [Example 25, 6-(3-Chloro-4-fluoro-phenyl)-8-methyl-8-vinyl-5,6,7,8-tetrahydro-[1,5]naphthyridine-2-carboxylic acid]  4.83 µM
10. O=C(O)c1ccc2c(c1)C1(CC1)CC(c1cccc(F)c1)N2 (stereo not shown) [Example 8, 2-(3-Fluoro-phenyl)-spiro(cyclopropane-1,4′-1′,2′,3′,4′-tetrahydroquinoline)-6-carboxylic acid]  4.44 µM
11. CC(C)NC(=O)c1ccc2c(c1)C1(CCCC1)CC(c1cc(F)ccc1Br)N2 (stereo not shown) [Example 60, 2-(2-Bromo-5-fluoro-phenyl)-spiro(cyclopentane-1,4′-1′,2′,3′,4′-tetrahydroquinoline)-6-carboxylic acid isopropylamide]  4.41 µM
12. O=C(c1ccc2c(c1)C1(CC1)CC(c1cc(Cl)ccc1Cl)N2)N1CCOCC1 (stereo not shown) [Example 40, [2-(2,5-Dichloro-phenyl)-spiro(cyclopropane-1,4′-1′,2′,3′,4′-tetrahydroquinolin)-6-yl]-morpholin-4-yl-methanone]  3.69 µM
13. CC1(c2ccccc2)CC(c2ccc(F)c(Cl)c2)Nc2ccc(C(=O)O)cc21 (stereo not shown) [Example 20, 2-(3-Chloro-4-fluoro-phenyl)-4-methyl-4-phenyl-1,2,3,4-tetrahydro-quinoline-6-carboxylic acid]  3.31 µM
14. CNC(=O)c1ccc2c(c1)C1(CC1)CC(c1c(C)cc(F)cc1Br)N2 (stereo not shown) [Example 49, 2-(2-Bromo-4-fluoro-6-methyl-phenyl)-spiro(cyclopropane-1,4′-1′,2′,3′,4′-tetrahydroquinoline)-6-carboxylic acid methylamide]  3.23 µM
15. O=C(O)c1ccc2c(c1)C1(CC1)CC(c1cc(Br)ccc1F)N2 (stereo not shown) [Example 2, 2-(5-Bromo-2-fluoro-phenyl)-spiro(cyclopropane-1,4′-1′,2′,3′,4′-tetrahydroquinoline)-6-carboxylic acid]  3.21 µM
16. O=C(c1ccc2c(c1)C1(CC1)CC(c1cc(Cl)ccc1F)N2)N1CCOCC1 (stereo not shown) [Example 44, [2-(5-Chloro-2-fluoro-phenyl)-spiro(cyclopropane-1,4′-1′,2′,3′,4′-tetrahydroquinolin)-6-yl]-morpholin-4-yl-methanone]  3.02 µM
17. CN(C)C(=O)c1ccc2c(c1)C1(CC1)CC(c1cc(F)ccc1Br)N2 (stereo not shown) [Example 34, 2-(2-Bromo-5-fluoro-phenyl)-spiro(cyclopropane-1,4′-1′,2′,3′,4′-tetrahydroquinoline)-6-carboxylic acid dimethylamide]  2.71 µM
18. CN(C)C(=O)N1c2ccc(C(=O)O)cc2C2(CC2)CC1c1cc(Cl)ccc1Cl (stereo not shown) [Example 13, 2-(2,5-Dichloro-phenyl)-1-dimethylcarbamoyl-spiro(cyclopropane-1,4′-1′,2′,3′,4′-tetrahydroquinoline)-6-carboxylic acid]  2.63 µM
19. O=C(NC1CCC1)c1ccc2c(c1)C1(CCCC1)CC(c1cc(F)ccc1Br)N2 (stereo not shown) [Example 54, 2-(2-Bromo-5-fluoro-phenyl)-spiro(cyclopentane-1,4′-1′,2′,3′,4′-tetrahydroquinoline)-6-carboxylic acid cyclobutylamide]  2.61 µM
20. CNC(=O)c1ccc2c(c1)C1(CCCC1)CC(c1cccc(N3CCOCC3)c1)N2 (stereo not shown) [Example 63, 2-(3-Morpholin-4-yl-phenyl)-spiro(cyclopentane-1,4′-1′,2′,3′,4′-tetrahydroquinoline)-6-carboxylic acid methylamide]  2.37 µM
21. Cc1ccc(F)cc1C1CC2(CC2)c2cc(C(=O)O)ccc2N1 (stereo not shown) [Example 1, 2-(5-Fluoro-2-methyl-phenyl)-spiro(cyclopropane-1,4′-1′,2′,3′,4′-tetrahydroquinoline)-6-carboxylic acid]  2.07 µM
22. CN(C)C(=O)c1ccc2c(c1)C1(CC1)CC(c1cc(Cl)ccc1F)N2 (stereo not shown) [Example 45, 2-(5-Chloro-2-fluoro-phenyl)-spiro(cyclopropane-1,4′-1′,2′,3′,4′-tetrahydroquinoline)-6-carboxylic acid dimethylamide]  1.76 µM
23. CC(CO)(CO)NC(=O)c1ccc2c(c1)C(C)(C)CC(c1cccc(N3CCOCC3)c1)N2 (stereo not shown) [Example 68, 4,4-Dimethyl-2-(3-morpholin-4-yl-phenyl)-1,2,3,4-tetrahydro-quinoline-6-carboxylic acid (2-hydroxy-1-hydroxymethyl-1-methyl-ethyl)-amide]  1.56 µM
24. CCC1(C)CC(c2ccc(F)c(Cl)c2)N(CCC(C)C)c2ccc(C(=O)O)nc21 (stereo not shown) [Example 27, 6-(3-Chloro-4-fluoro-phenyl)-8-ethyl-8-methyl-5-(3-methyl-butyl)-5,6,7,8-tetrahydro-[1,5]naphthyridine-2-carboxylic acid]  1.49 µM
25. O=C(O)c1ccc2c(c1)C1(CC1)CC(c1cc(Cl)ccc1F)N2 (stereo not shown) [Example 5, 2-(5-Chloro-2-fluoro-phenyl)-spiro(cyclopropane-1,4′-1′,2′,3′,4′-tetrahydroquinoline)-6-carboxylic acid]  1.24 µM
